Source: patent US6451854B1, “α-amino acid phenyl ester derivatives” (Akzo Nobel N.V., priority 1998, dated 2002)
Counter-ions that a name gives are not always drawn.

What was measured:
[1] = system: mice; experiment: hypnotic activity: loss of righting reflex after intravenous administration in mice; type: in vivo; conditions: dose causing loss of righting reflex for minimum 30 seconds in 50% of mice, intravenous injection over 10 seconds; for ED50: Mus musculus, iv, read-out: HD50 (the source's name)
Experimental: The hypnotic potency of the α-amino acid phenyl ester derivatives of the invention was determined upon their intravenous administration in mice. The dose required to cause a loss of righting reflex for a minimum period of 30 seconds in 50% of treated mice after intravenous injection over 10 seconds was determined. This dose is termed the HD50 (hypnotic dose50) and is expressed in μmol.kg^−1.

[2] = biological target: GABAA receptors; experiment: inhibition of [35S]-TBPS binding to rat whole brain membranes; conditions: concentration required to inhibit 50% of [35S]-TBPS binding
Description: γ-Aminobutyric acid (GABA) is the major inhibitory neurotransmitter within the central nervous system and it is probable that compounds potentiating the effects of GABA at GABAA receptors will induce anaesthesia (S. A. Zimmerman, M. V. Jones and N. L. Harrison, J. Pharmacol. Exp. Therap. 1994, 270, 987-991; N. P. Franks and W. R. Lieb, Nature 1994, 367, 607-614). Indeed there is compelling evidence that many hypnotics exert their biological activity via modulation of GABAA receptors, including steroids, barbiturates, benzodiazepines and propofol (D. L. Tanelian, P. Kosek, I. Mody and M. B. Maclver, Anesthesiology 1993, 78, 757-776).
The in vitro effect of the compounds of the invention at GABAA receptors was assessed through determination of their ability to inhibit [^35S]-TBPS ([^35S]-tert-butyl bicyclophosphorothionate) binding to rat whole brain membranes. The concentration of α-amino acid phenyl ester derivative required to inhibit 50% of binding of [^35S]-TBPS was determined. These in vitro experiments were carried out as described in detail by Anderson et al., J.Med.Chem. 1997, 40, 1668-1681.

Compound	HD50 [1]	ED50 [1] [µmol/kg]	IC50 [2] [µM]
CCCCC(C(=O)Oc1c(OC)cccc1OC)N(CCOC)CCOC.Cl (racemic) [Example 7ad, (±)-2-[N-bis(2-methoxyethyl)amino]hexanoic acid, 2,6-dimethoxyphenyl ester hydrochloride (1:1) salt]	<12 µmol/kg	–	–
CCC(C(=O)Oc1c(OC)cccc1OC)N(CC(C)OC)CC(C)OC.Cl (racemic) [Example 7ae, (±)-2-[N-bis(2-methoxypropyl)amino]butyric acid, 2,6-dimethoxyphenyl ester hydrochloride (1:1) salt]	27 µmol/kg	–	–
CCCC(C(=O)Oc1c(OC)cc(C)cc1OC)N(CCOC)CCOC.Cl (racemic) [Example 7af, (±)-2-[N-bis(2-methoxyethyl)amino]pentanoic acid, 2,6-dimethoxy-4-methylphenyl ester hydrochloride (1:1) salt]	34 µmol/kg	–	–
CCCCC(C(=O)Oc1c(OC)cc(C)cc1OC)N(CCOC)CCOC.Cl (racemic) [Example 7ag, (±)-2-[N-bis(2-methoxyethyl)amino]hexanoic acid, 2,6-dimethoxy-4-methylphenyl ester hydrochloride (1:1) salt]	34 µmol/kg	–	–
COCCN(CCOC)C(CC(C)C)C(=O)Oc1c(OC)cc(C)cc1OC.Cl (racemic) [Example 7aj, (±)-2-[N-bis(2-methoxyethyl)amino]4-methylpentanoic acid, 2,6-dimethoxy-4-methylphenylester hydrochloride (1:1) salt]	convulsant	–	–
COCCN(C)C(CC(C)C)C(=O)Oc1c(OC)cc(C)cc1OC.Cl (racemic) [Example 7ak, (±)-2-[N-(2-methoxyethyl)-N-methylamino]-4-methylpentanoic acid, 2,6-dimethoxy-4-methylphenylester hydrochloride (1:1) salt]	28 µmol/kg	–	–
CCC(C(=O)Oc1c(OC)cc(C)cc1OC)N(CCOC)CCOC (racemic) [Example 7b, (±)-2-[N-bis(2-methoxyethyl)amino]butyric acid, 2,6-dimethoxy-4-methylphenyl ester hydrochloride (1:1) salt]	–	22	18
CCC(C(=O)Oc1c(OC)cccc1OC)N(CCOC)CCOC (racemic) [Example 7c, (±)-2-[N-bis(2-methoxyethyl)amino]butyric acid, 2,6-dimethoxyphenyl ester hydrochloride (1:1) salt]	–	19	10
CCOCCN(CCOCC)C(C)C(=O)Oc1c(OC)cccc1OC (racemic) [Example 7d, (±)-2-[N-bis(2-ethoxyethyl)amino]propionic acid, 2,6-dimethoxyphenyl ester hydrochloride (1:1) salt]	–	68	≤ 100
COCCN(CCOC)C(C)C(=O)Oc1c(OC)cc(C)cc1OC (racemic) [Example 7e, (±)-2-[N-bis(2-methoxyethyl)amino]propionic acid, 2,6-dimethoxy-4-methylphenyl ester hydrochloride (1:1) salt]	–	52	< 100
COCCN(CCOC)C(C)C(=O)Oc1c(OC)cccc1OC (racemic) [Example 7f, (±)-2-[N-bis(2-methoxyethyl)amino]propionic acid, 2,6-dimethoxyphenyl ester hydrochloride (1:1) salt]	–	55	< 100
COc1cc(C)cc(OC)c1OC(=O)C(C)N(C)Cc1ccccc1 (racemic) [Example 7g, (±)-2-[N-methylbenzylamino]propionic acid, 2,6-dimethoxy-4-methylphenyl ester hydrochloride (1:1) salt]	–	45	22
CCN(CC)C(C)C(=O)Oc1c(OC)cc(C)cc1OC (racemic) [Example 7j, (±)-2-[diethylamino]propionic acid, 2,6-dimethoxy-4-methylphenyl ester hydrochloride (1:1) salt]	–	43	< 50
CCC(C(=O)Oc1c(OC)cccc1OC)N(C)Cc1ccccc1 (racemic) [Example 7k, (±)-2-[N-methylbenzylamino]butyric acid, 2,6-dimethoxyphenyl ester hydrochloride (1:1) salt]	–	40	13
CCOCCN(CCOCC)C(CC)C(=O)Oc1c(OC)cccc1OC (racemic) [Example 7l, (±)-2-[N-bis(2-ethoxyethyl)amino]butyric acid, 2,6-dimethoxyphenyl ester hydrochloride (1:1) salt]	–	–	~100
CCOc1cccc(OCC)c1OC(=O)C(CC)N(CCOC)CCOC (racemic) [Example 7n, (±)-2-[N-bis(2-methoxyethyl)amino]butyric acid, 2,6-diethoxyphenyl ester hydrochloride (1:1) salt]	–	27	20
CCC(C(=O)Oc1c(OC(C)C)cccc1OC(C)C)N(CCOC)CCOC (racemic) [Example 7o, (±)-2-[N-bis(2-methoxyethyl)amino]butyric acid, 2,6-di-(1-methyl)ethoxyphenyl ester hydrochloride (1:1) salt]	–	64	< 100
CCCC(C(=O)Oc1c(OC)cccc1OC)N(CCOC)CCOC (racemic) [Example 7s, (±)-2-[N-bis(2-methoxyethyl)amino]pentanoic acid, 2,6-dimethoxyphenyl ester hydrochloride (1:1) salt]	–	12	4.2
CCC(C(=O)Oc1c(OC)cc(OC)cc1OC)N(CCOC)CCOC (racemic) [Example 7t, (±)-2-[N-bis(2-methoxyethyl)amino]butyric acid, 2,4,6-trimethoxyphenyl ester hydrochloride (1:1) salt]	–	21	14
COCCN(CCOC)C(C(=O)Oc1c(OC)cccc1OC)C(C)C (racemic) [Example 7u, (±)-3-methyl-2-[N-bis(2-methoxyethyl)amino]butyric acid, 2,6-dimethoxyphenyl ester hydrochloride (1:1) salt]	–	27	100
CCOCCN(CCOCC)C(C)C(=O)Oc1c(OC)cccc1OC (single isomer, unassigned; (+)) [Example 7w, (+)-2-[N-bis(2-ethoxyethyl)amino]propionic acid, 2,6-dimethoxyphenyl ester hydrochloride (1:1) salt]	35 µmol/kg	–	~100
CCOCCN(CCOCC)C(C)C(=O)Oc1c(OC)cccc1OC (single isomer, unassigned; (-)) [Example 7x, (−)-2-[N-bis(2-ethoxyethyl)amino]propionic acid, 2,6-dimethoxyphenyl ester hydrochloride (1:1) salt]	46 µmol/kg	–	< 100
CC[C@H](C(=O)Oc1c(OC)cc(C)cc1OC)N(CCOC)CCOC [Example 7a, R-(+)-2-[N-bis(2-methoxyethyl)amino]butyric acid, 2,6-dimethoxy-4-methylphenyl ester hydrochloride (1:1) salt]	–	21	22
CCOCCN(CCOCC)[C@@H](CC)C(=O)Oc1c(OC)cccc1OC [Example 7aa, S-(−)-2-[N-bis(2-ethoxyethyl)amino]butyric acid, 2,6-dimethoxyphenyl ester hydrochloride (1:1) salt]	–	22	11
CCCCC(C(=O)Oc1c(OC)cccc1OC)N(CCOC)CCOC.Cl (centres unmarked) [Example 7ah, ξ-2-[N-bis(2-methoxyethyl)amino]hexanoic acid, 2,6-dimethoxyphenyl ester hydrochloride (1:1) salt]	8 µmol/kg	–	–
CCCCC(C(=O)Oc1c(OC)cccc1OC)N(CCOC)CCOC.Cl (centres unmarked) [Example 7ai, ξ-2-[N-bis(2-methoxyethyl)amino]hexanoic acid, 2,6-dimethoxyphenyl ester hydrochloride (1:1) salt]	47 µmol/kg	–	–
COc1cc(C)cc(OC)c1OC(=O)[C@@H](C)N(C)Cc1ccccc1 [Example 7h, R-(+)-2-[N-methylbenzylamino]propionic acid, 2,6-dimethoxy-4-methylphenyl ester hydrochloride (1:1) salt]	–	56	27
COc1cccc(OC)c1OC(=O)C(C)N(C)CCc1ccccc1 (centres unmarked) [Example 7m, 2-[N-methylphenethylamino]propionic acid, 2,6-dimethoxyphenyl ester hydrochloride (1:1) salt]	–	38	59
COCCN(C)C(C)C(=O)Oc1c(OC)cccc1OC.Cl (centres unmarked) [Example 7p, 2-[N-methyl-(2-methoxy)ethylamino]propionic acid, 2,6-dimethoxyphenyl ester hydrochloride (1:1) salt]	72 µmol/kg	–	~100
(±)-2-[N-bis(2-methoxyethyl amino]-3-methylbutyric acid, 2,6-dimethoxy-4-methylphenylester hydrochloride (1:1) salt [Example 7al]	44 µmol/kg	–	–
